Here are results for two compounds from ChEMBL document CHEMBL1921739, “Diabetic nephropathy-related active cyclic peptides from the roots of Brachystemma calycinum” (Bioorg Med Chem Lett, 2011).

Calls of active or inactive are those of the source. The calls are words filed in the database; no cut-off is given here. Peptide text beside a SMILES is read from it.

A short description of data set [1]: Antidiabetic nephropathy activity in rat CRL-2573 cells assessed as inhibition of high glucose-induced MCP-1 production at 10 uM preincubated for 1 hr before glucose challenge measured after 24 hrs by ELISA. In kind it is functional, cell-based. For orientation: An ELISA detects its analyte on a solid surface through an enzyme-linked reagent.
Data set [2] is described as follows: Antidiabetic nephropathy activity in rat CRL-2573 cells assessed as inhibition of high glucose-induced ROS production at 1 to 10 uM by flow cytometry. Type of data set: functional, cell-based. In general terms: In flow cytometry, cells or beads pass a laser one at a time.
The nature of data set [3]: Antidiabetic nephropathy activity in rat CRL-2573 cells assessed as inhibition of high glucose-induced IL-6 production at 10 uM preincubated for 1 hr before glucose challenge measured after 24 hrs by ELISA. In kind it is functional, cell-based.
Data set [4] in a line: Cytotoxicity against rat CRL-2573 cells assessed as cell viability at 10 uM after 24 hrs by trypan blue exclusion assay. Conditions: crl-2573, 24 h. Type of data set: cell-based.
The nature of data set [5]: Antidiabetic nephropathy activity in rat CRL-2573 cells assessed as inhibition of high glucose-induced collagen 4production at 1 uM preincubated for 1 hr before glucose challenge measured after 24 hrs by ELISA. In kind it is functional, cell-based.

Regarding `CC(C)C[C@@H]1NC(=O)[C@H](CC(=O)O)NC(=O)[C@H](Cc2c[nH]c3ccccc23)NC(=O)[C@H](C)NC(=O)[C@@H]2CCCN2C(=O)CNC(=O)[C@H](Cc2ccccc2)NC(=O)[C@@H]2CCCN2C1=O` (cyclo(AWDLPFGP)), the outcome in data set [1], in data set [2] and in data set [3] was Active.

Regarding `CC[C@H](C)[C@@H]1NC(=O)[C@@H]2CCCN2C(=O)[C@@H]2CCCN2C(=O)[C@H](Cc2ccc(O)cc2)NC(=O)[C@H](CO)NC(=O)[C@H](C)NC(=O)[C@H](Cc2ccccc2)NC(=O)[C@H](CO)NC1=O` [DUANBANHUAIN A] (cyclo(ASYPPISF)), the outcome in data set [1], in data set [2], in data set [3] and in data set [5] was Active. The Activity result in data set [4] is “Non-toxic”.
